# From US7723020B2, “Use of azetidinone compounds” (Schering Corporation, priority 1999, dated 2010)
# Assays:
# [1] = test system: cholesterol absorption; assay: Acute in vivo cholesterol absorption model: inhibition of 14C-cholesterol absorption into plasma, intestinally cannulated rats; design: species or system Male Sprague-Dawley rats; conditions: rat, relative to bile vehicle control
# Procedure: Male Sprague-Dawley rats weighing 300-400 g were used. After an overnight fast, rats were anesthetized (Inactin, […] i.p.) for the duration of each study and were fitted with a cannula into the small intestine just below the pyloric valve. For the cannulation of the small intestine, a catheter (Surflo® i.v. catheter (18GX2″), Terumo Medical Corporation; Elkton, Md.) was inserted through the fundus of the stomach, advanced 1 cm beyond the pylorus, and ligated in place. Compounds were mixed in rat bile and delivered by bolus injection (1 mL) via the intestinal catheter into the small intestine.
# One hour after the bile doses were delivered, three mL of an emulsion consisting of 2.23 mg/mL L-phosphatidylcholine and 11.8 mg/mL triolein in 19 mM sodium taurocholate (Sigma; St. Louis, Mo.) buffer (pH 6.4) containing 3 mg cholesterol and 1 mCi ^14C-cholesterol (NEN; Boston, Mass.) was delivered to each rat as a bolus via the intestinal cannula. Ninety minutes after the cholesterol emulsion was delivered, the rats were euthanized. Blood was collected and plasma was separated by centrifugation at 2000 rpm for 15 min at 4° C. Triplicate aliquots of plasma were analyzed ^14C radioactivity and inhibition of cholesterol absorption relative to bile vehicle control rats was determined.
# [2] = target: T1, Scavenger receptor, class B, type I (SR-BI) (Rattus norvegicus, UniProt P97943); assay: Expression cloning of rat intestinal epithelial cDNA library in BW5147 cells, stained with fluorescent compound, FACS; type: cell-based; conditions: two clones from two independent cDNA expression libraries, FACS-positive BW5147 cells
# T1 construct: expressed in transfected cells; host or cells: mouse cell line BW5147, infected with pMX retrovirus packaged in BOSC23
# T1 sequence (P97943 1-509): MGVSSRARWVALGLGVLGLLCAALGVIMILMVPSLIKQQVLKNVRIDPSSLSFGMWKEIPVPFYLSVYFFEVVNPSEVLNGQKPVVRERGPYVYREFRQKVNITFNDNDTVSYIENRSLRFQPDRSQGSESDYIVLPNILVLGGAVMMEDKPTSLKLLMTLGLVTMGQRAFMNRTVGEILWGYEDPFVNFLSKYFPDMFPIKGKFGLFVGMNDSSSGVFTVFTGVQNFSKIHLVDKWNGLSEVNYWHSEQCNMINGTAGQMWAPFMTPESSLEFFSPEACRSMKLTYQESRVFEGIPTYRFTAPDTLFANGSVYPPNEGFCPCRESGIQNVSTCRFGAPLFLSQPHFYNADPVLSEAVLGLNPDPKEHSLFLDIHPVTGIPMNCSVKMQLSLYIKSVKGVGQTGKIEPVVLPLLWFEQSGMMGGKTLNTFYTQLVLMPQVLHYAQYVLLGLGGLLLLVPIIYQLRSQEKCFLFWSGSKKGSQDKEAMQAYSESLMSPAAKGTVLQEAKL
# Excerpt: The small intestine was removed from male CRL: CD BR rats. Intestinal epithelial cells were isolated by the method of Weiser (Weiser, M., 1973, JBC 248, 2536-2541) and the mRNA extracted. Poly A mRNA was purified and double stranded cDNA synthesized. Adapter linkers were ligated followed by size selection (>2 Kb) of the cDNA. The selected fraction of cDNA was ligated into the retroviral expression plasmid pMX, subsequently transformed into bacteria and grown on selective agar at a clonal density of −30,000/plate. Each pool of bacterial clones was collected and plasmid DNA prepared.
# Individual pools of cDNA library were transformed into the retroviral packaging cell line BOSC23 and the resulting viral particles, containing the cDNA library, were used to infect the mouse cell line BW5147. Following infection BW5147 cells were stained with compound 1C and analyzed by fluorescent activated cell sorting (FACS). Positive staining cells (−01%) were recovered and re-cultured. The process of recovering positive staining cells was repeated after expansion of the cell population in culture and following the second round of FACS analysis individual cells were isolated by limiting dilution.
# Individual clonal populations of cells were subjected to PCR using retroviral vector specific oligonucleotide primers designed to flank the multiple cloning site in which the cDNA library was cloned. […]
Compound,% Inhibition of [14C]-Cholesterol Absorption into Plasma ([1]; dose 56 μg/kg in rat bile via intestinal catheter) [%],% Inhibition of [14C]-Cholesterol Absorption into Plasma ([1]; dose 186 μg/kg in rat bile via intestinal catheter) [%],% Inhibition of [14C]-Cholesterol Absorption into Plasma ([1]; dose 30 μg/kg in rat bile via intestinal catheter) [%],% Inhibition of [14C]-Cholesterol Absorption into Plasma ([1]; dose 100 μg/kg in rat bile via intestinal catheter) [%],cellular receptor identified by expression cloning with the fluorescent compound [2]
O=C(CCCCCNC(=O)c1ccc(-c2c3ccc(=O)cc-3oc3cc(O)ccc23)c(C(=O)O)c1)NCC#Cc1ccc(N2C(=O)[C@H](CC[C@H](O)c3ccc(F)cc3)[C@H]2c2ccc(O[C@@H]3O[C@H](C(=O)O)[C@@H](O)[C@H](O)[C@H]3O)cc2)cc1 [IB],79,88,–,–,–
"[1-O-[4-[1-[4-[3-[[3-[2-[(3,5-DIMETHYL-1H-PYRROL-2-YL-.KAPPA.N)METHYLENE]-2H-PYRROL-5-YL-.KAPPA.N]-1-OXOPROPYL]AMINO]-1-PROPYNYL]PHENYL]-3(R)-[3(S)-HYDROXY-3-(4-FLUOROPHENYL)PROPYL]-2-OXO-4(S)-AZETIDINYL]PHENYL]-BETA-D-GLUCURONATO]DIFLUOROBORATE, HYDROGEN [IC]",–,–,58,80,identified as the cellular receptor
